Drawing on the Deep4Chem optical property database, this text covers absorption maximum for 42 compounds.

The nature of this data set: solvent given as SMILES.

Each structure is given as a SMILES string.

On to `c1csc(-c2cnc(-c3cccs3)c3nonc23)c1`, for which the absorption maximum is, setting by setting: (in C1CCCCC1) 461 nm; (in CC(C)=O) 461 nm; (in CCCCCC) 458 nm; (in CCCO) 466 nm; (in CCO) 460 nm; (in CCOCC) 462 nm. Also, the absorption maximum by setting is: (in CO) 460 nm; (in Cc1ccccc1) 465 nm; (in ClC(Cl)(Cl)Cl) 465 nm; (in ClC(Cl)Cl) 464 nm; (in Nc1ccccc1) 474 nm; (in O=[N+]([O-])c1ccccc1) 476 nm. Also, the absorption maximum reads like this: (in OCC(O)CO) 471 nm; (in OCc1ccccc1) 473 nm; (in c1ccc2ncccc2c1) 477 nm; (in c1ccccc1) 465 nm; (in c1ccncc1) 472 nm.
With `Cc1ccc(C2=C3C=CC(/C=C/c4ccccc4)=[N+]3[B-](F)(F)n3c(Cl)ccc32)cc1`, the absorption maximum stood at 569 nm (in C1CCCCC1); 568 nm (in C1CCOC1); 569 nm (in C1COCCO1); 565 nm (in CCOC(C)=O); 564 nm (in CO); 572 nm (in Cc1ccccc1). Where the note is “in ClC(Cl)Cl”, this compound displayed an absorption maximum of 571 nm.
For `CC(=O)Nc1cccc2c1C#Cc1c(cccc1C(=O)N(C)C)OCCCO2`, the absorption maximum (in CC#N) turned out to be 315 nm and the absorption maximum (in ClCCl) is 318 nm.
Turning to `COC(=O)c1ccc(C(=O)NC(C)(C)C)c2c1ccc1c3ccccc3c3ccccc3c12`, for the setting “in ClCCl”, the absorption maximum is listed as 336 nm.
In the case of `COCCOCCOCCOc1cc(C=O)c(OCCOCCOCCOC)cc1C=O`, the absorption maximum (in CC(C)(C)O) is 393 nm; the absorption maximum (in CC(C)CO) came to 390 nm; the absorption maximum (in CC(C)O) was found to be 391 nm; the absorption maximum (in CCCCO) came out at 378 nm; the absorption maximum (in CCCO) came out at 367 nm; the absorption maximum (in CCO) was determined as 364 nm. Moreover, the absorption maximum runs as follows: (in CN(C)C=O) 393 nm; (in CNC=O) 350 nm; (in CO) 354 nm; (in NC=O) 354 nm; (in O) 394 nm.
In turn, `CCCC1=Cc2nc1ccc1[nH]c(cc1CCC)c1nc(c(O)cc3[nH]c2cc3CCC)C(CCC)=C1` showed an absorption maximum (in Cc1ccccc1) of 677 nm.
The compound `CCn1c2ccccc2c2c(N(c3ccccc3)c3ccccc3)cccc21` had an absorption maximum (in ClCCl) of 357 nm.
Compound `CCCCc1ccc(-n2c3c4cc(F)ccc4nc(-c4ccc(OC)cc4)c3c3c2c2c(-c4ccc(OC)cc4)nc4ccc(F)cc4c2n3-c2ccc(CCCC)cc2)cc1` came in with an absorption maximum (in ClC(Cl)Cl) of 305 nm.
For `CC1=[N+]2C(=C(Oc3ccc4c(c3)CC[C@@H]3[C@@H]4CC[C@]4(C)C(=O)CC[C@@H]34)c3ccc(C)n3[B-]2(F)F)C=C1c1cc2n(c1)[B-](F)(F)[N+]1=CC=CC1=C2c1c(C)cc(C)cc1C`, the absorption maximum is 579.5 nm (in C1CCCCC1) and 574 nm (in CCOC(C)=O).
Turning to `COc1cc2c(cc1-c1ccc([N+](=O)[O-])cc1)Cc1c3c(c4c(c1-2)-c1cc(OC)c(-c2ccc([N+](=O)[O-])cc2)cc1C4)C(=O)N(CCC(C)C)C3=O`, the absorption maximum (in C1CCOC1) came to 409 nm.
For the setting “in Cc1ccccc1”, `c1ccc(-c2nc(-c3ccccc3)nc(-c3ccc(-n4c5ccc(-c6ccc7sc8ccccc8c7c6)cc5c5cc(-c6ccc7sc8ccccc8c7c6)ccc54)cc3)n2)cc1` displayed an absorption maximum of 377 nm.
With `CN(C)c1ccc2c(c1)[Si](C)(C)C1=CC(=[N+](C)C)C=CC1=C2C#Cc1ccccc1`, the absorption maximum reads like this: (in CO) 712 nm; (in O) 712 nm.
`CC(C)(C)c1ccc(-c2cnc3cccc(-c4ccccc4)n23)cc1` registered an absorption maximum (in ClCCl) of 339 nm.
For the setting “in ClCCl”, `CN(C)c1ccc(-c2cc(-c3ccc(N(C)C)cc3)ncn2)cc1` displayed an absorption maximum of 378 nm.
`CC[N+]1(CC)CN2C(=N1)C(C(=O)O)=Cc1cc(SC)ccc12` gave an absorption maximum (in O) of 397 nm.
`N#Cc1cc(C#N)c(-c2cc(-n3c4ccccc4c4ccccc43)cc(-n3c4ccccc4c4ccccc43)c2)cc1-c1ccc(N(c2ccccc2)c2ccccc2)cc1`: the absorption maximum (in Cc1ccccc1) worked out at 405 nm.
`C(=C\c1nc2ccccc2s1)/c1ccccc1` yielded an absorption maximum (in C1CCCCC1) of 340 nm and an absorption maximum (in CO) of 340 nm.
`C/C(=C\c1ccc(C)cc1)c1nc2ccccc2o1`: the absorption maximum was 315 nm (in C1CCCCC1) and 315 nm (in CO).
As for `CC1(C)C(/C=C/c2cc3ccc(O)cc3oc2=O)=[N+](CCCS(=O)(=O)[O-])c2ccccc21`, the absorption maximum turned out to be 623 nm (in CCO), 630 nm (in CS(C)=O) and 555 nm (in O).
With `c1ccncc1`, the absorption maximum is given as 252 nm (in CC1CCCCC1), 253 nm (in ClC(Cl)Cl) and 253 nm (in O).
`c1cc(N2CCCC2)ccn1`: the absorption maximum by setting is: (in CC1CCCCC1) 293 nm; (in CC#N) 285 nm; (in CCCCCCC) 293 nm; (in CCO) 286 nm; (in CN(C)C=O) 284 nm; (in ClC(Cl)Cl) 285 nm. The absorption maximum (in O) turned out to be 280 nm.
For the compound `c1ccc(-c2c3ccccc3c(-c3ncccn3)c3ccccc23)cc1`, the absorption maximum was found to be 390 nm (in CCO) and 393 nm (in ClCCl).
`O=S(=O)([O-])c1ccc2c(O)cc(S(=O)(=O)[O-])cc2c1` registered an absorption maximum (in O) of 295 nm.
Regarding `CCCCCCCN1C(=CC2=C([O-])C(=Cc3sc4ccccc4[n+]3CCCCCCC)C2=C(C#N)C#N)Sc2ccccc21`, the absorption maximum is, setting by setting: (in C1COCCO1) 709 nm; (in CCO) 696 nm; (in CN(C)C=O) 696 nm; (in ClC(Cl)Cl) 704 nm.
Consider `CC(C)[Si](C#Cc1c2ccccc2c(C#C[Si](C(C)C)(C(C)C)C(C)C)c2nc3cc4c(cc3nc12)C1c2ccccc2C4c2ccccc21)(C(C)C)C(C)C`, for which the absorption maximum reads like this: (in CCCCCC) 558 nm; (in ClCCl) 562 nm.
For `CC(C)[Si]1(C(C)C)c2cc(N(C)C)ccc2-c2ccc(C(F)(F)F)cc21`, the absorption maximum (in C1CCCCC1) came out at 331 nm; the absorption maximum (in CC#N) was determined as 337 nm; the absorption maximum (in CCO) was 335 nm; the absorption maximum (in CCOCC) was found to be 334 nm; the absorption maximum (in CS(C)=O) amounted to 344 nm; the absorption maximum (in ClCCl) amounted to 338 nm. For the same compound, the absorption maximum (in c1ccccc1) is on record as 338 nm.
For `Cc1cc(C)c(B(c2cc(-c3ccccc3)sc2-c2sc(-c3ccccc3)cc2P(=O)(c2ccccc2)c2ccccc2)c2c(C)cc(C)cc2C)c(C)c1`, the absorption maximum (in CO) is listed as 392 nm.
`CC(=O)OCOC(=O)CN(CC(=O)OCOC(C)=O)c1ccccc1OCCOc1cc(NC(=O)c2ccc3c(c2)C(=O)OC32c3cc(Cl)c(OC(C)=O)cc3Oc3cc(OC(C)=O)c(Cl)cc32)ccc1N(CC(=O)OCOC(C)=O)CC(=O)OCOC(C)=O` registered an absorption maximum (in O) of 506 nm.
The compound `C[Si](C)(C)[Si](C)(C)c1ccc2cc3ccccc3cc2c1` gave an absorption maximum (in C1CCCCC1) of 382.68 nm.
`CC(C)(C)c1ccc(-c2c(-c3ccc4c5ccccc5n(-c5ccccc5)c4c3)c(C#N)c(-c3ccc4c5ccccc5n(-c5ccccc5)c4c3)c(-c3ccc(C(C)(C)C)cc3)c2-c2ccc(C(C)(C)C)cc2)cc1` displayed an absorption maximum (in C1CCOC1) of 345 nm.
For the compound `COc1cc2c(cc1F)c(=O)c1cc(F)c(OC)cc1n2-c1ccccc1`, the absorption maximum (in CCO) is 378 nm.
Turning to `O=P1(c2ccccc2)C(c2ccc(C(F)(F)F)cc2)=Cc2cc3ccccc3cc21` (stereo unspecified), the absorption maximum (in ClCCl) came out at 387 nm.
Where the note is “in Cc1ccccc1”, `c1cc2ccc3ccc4cc3c2cc1c1ccc2ccc3ccc(cc3c2c1)c1ccc2c(c1)c1cc4ccc1[C@]13OCCO[C@]21OCCO3` yielded an absorption maximum of 366 nm.
Turning to `Cc1ccc(C2=C3C=CC4=[N+]3[P-](=O)(=O)n3c2ccc3-c2ccc([nH]2)/C(c2ccc(C)cc2)=c2/cc/c(o2)=C(\c2ccc(C)cc2)c2ccc4[nH]2)cc1`, the absorption maximum (in ClC(Cl)Cl) came out at 708 nm.
On to `Cc1cccc2nc3c(=O)[nH]c(=O)[nH]c3nc12`, for which the absorption maximum (in C1COCCO1) is recorded as 379 nm; the absorption maximum (in CC#N) is listed as 379 nm; the absorption maximum (in CCO) amounted to 381 nm; the absorption maximum (in CO) is 382 nm; the absorption maximum (in ClCCCl) is 380 nm; the absorption maximum (in O) is on record as 386 nm.
`CN(C)c1ccc(N2c3c(sc4ccccc34)Sc3sc4ccccc4c32)cc1` displayed an absorption maximum (in ClCCl) of 309 nm.
In the case of `N#Cc1cnc(-c2c3ccccc3c(-c3ncc(C#N)cn3)c3ccccc23)nc1`, the absorption maximum (in CCO) was 391 nm and the absorption maximum (in ClCCl) was 394 nm.
Where the note is “in ClCCl”, `CCc1cccc(CC)c1-c1c2ccccc2c(-c2c(CC)cccc2CC)c2cc3ccccc3cc12` had an absorption maximum of 495 nm.
Compound `c1ccc(-c2nc(-c3ccccc3)c(-c3ccccc3)o2)cc1` showed an absorption maximum (in Cc1ccccc1) of 311 nm.
As to `[BH3-][P+]1(c2ccccc2)c2ccccc2-c2sc3ccccc3c21` (stereo unspecified), the absorption maximum (in C1CCCCC1) amounted to 324 nm, the absorption maximum (in CC#N) was determined as 323 nm, the absorption maximum (in CCO) was 323 nm and the absorption maximum (in ClCCl) was found to be 325 nm.
For the compound `CC1=[N+]2C(=c3c4c5ccccc5cc5cccc(c6cc(C)n(c36)[B-]2(F)F)c54)C=C1`, the absorption maximum is, setting by setting: (in C1CCOC1) 584 nm; (in CCCCCC) 583 nm; (in CO) 583 nm; (in CS(C)=O) 587 nm; (in ClC(Cl)Cl) 584 nm; (in ClCCl) 583 nm.
Regarding `CCCCCCCCCCn1nnc(-c2ccc(C#Cc3ccc(C#Cc4ccc(-c5nnn(CCCCCCCCCC)n5)cc4)c4nc5c6ccccc6c6ccccc6c5nc34)cc2)n1`, the absorption maximum stood at 428 nm (in C1CCOC1), 428 nm (in Cc1ccccc1) and 428 nm (in ClCCl).
